Test results from patent publication US12637481B2, “Boronic acid derivatives and therapeutic uses thereof” (QPEX BIOPHARMA, INC., priority 2020, dated 2026).
Like-named read-outs stand apart in the source and are kept apart here.

Experiments:
[1] = Microsomal activation of prodrug, rat liver microsomes; assay type: in vitro ADME; conditions: 1 μM in rat liver microsomes, room temperature, assayed for active drug by LC/MS/MS
Protocol: (§1) Serum activation: Compounds 1, 2, or II were solubilized in water and added to rat, dog, monkey, and human serum at a concentration of 50 μg/mL. The samples were incubated at room temperature for 1 hour then assayed for “active” drug content using an LC/MS/MS assay. Microsomal activation: Compounds 1, 2, or II were solubilized in water and added to rat, dog, monkey, and human liver microsomes at a concentration of 1 μM. The samples were incubated at room temperature for 1 hour then assayed for “active” drug content using an LC/MS/MS assay.

[2] = Microsomal activation of prodrug, monkey liver microsomes; assay type: in vitro ADME; conditions: 1 μM in monkey liver microsomes, room temperature, assayed for active drug by LC/MS/MS; read-out: Half-life monkey micorsomes
Protocol: as §1

[3] = Serum activation of prodrug, rat serum; assay type: in vitro ADME; conditions: 50 μg/mL in rat serum, room temperature, 1 hour, assayed for active drug by LC/MS/MS
Protocol: as §1

[4] = Serum activation of prodrug, human serum; assay type: in vitro ADME; conditions: 50 μg/mL in human serum, room temperature, 1 hour, assayed for active drug by LC/MS/MS
Protocol: as §1

[5] = Microsomal activation of prodrug, dog liver microsomes; assay type: in vitro ADME; conditions: 1 μM in dog liver microsomes, room temperature, assayed for active drug by LC/MS/MS
Protocol: as §1

Permeability/transport = assay type: in vitro ADME
[6] = Microsomal activation of prodrug, human liver microsomes; assay type: in vitro ADME; conditions: for half-life at 1 μM: 1 μM in human liver microsomes, room temperature, assayed for active drug by LC/MS/MS
Protocol: as §1

Crystallinity = assay type: physicochemical
[7] = Serum activation of prodrug, dog serum; assay type: in vitro ADME; conditions: 50 μg/mL in dog serum, room temperature, 1 hour, assayed for active drug by LC/MS/MS
Protocol: as §1

[8] = Serum activation of prodrug, monkey serum; assay type: in vitro ADME; conditions: 50 μg/mL in monkey serum, room temperature, 1 hour, assayed for active drug by LC/MS/MS
Protocol: as §1

[9] = Dynamic vapor sorption (DVS), hygroscopicity; assay type: physicochemical; conditions: 25° C., 5 to 95% RH
Protocol: DVS analysis was carried out using a TA Instruments Q5000 Dynamic Vapor Sorption analyzer. The instrument was calibrated with standard weights and a sodium bromide standard for humidity. Approximately 20 mg of sample was loaded into a metal-coated quartz pan for analysis. The sample was analyzed at 25° C. with a maximum equilibration time of one hour in 10% relative humidity (RH) steps from 5 to 95% RH (adsorption cycle) and from 95 to 5% RH (desorption cycle). The movement from one step to the next occurred either after satisfying the equilibrium criterion of 0.01% weight change or, if the equilibrium criterion was not met, after one hour. The percent weight change values were calculated using Microsoft Excel®. The temperature for the DVS analysis can impact the outcome of the results.

Compound | half-life at 1 μM [1] [min] | half-life at 1 μM [2] [min] | half-life at 50 μg/mL [3] [min] | half-life at 50 μg/mL [4] [min] | half-life at 1 μM [5] [min] | Permeability/transport (Permeability/transport) | half-life at 1 μM [6] [min] | human microsomal activation, compared in words ([6]; compared with Compound 2 or Compound II) | Crystallinity (Crystallinity) | half-life at 50 μg/mL [7] [min] | half-life at 50 μg/mL [8] [min] | Crystallinity (Crystallinity; listed as drawing 11) | Human microsome activation t1/2 ([6]; human liver microsomes, as repeated in Table 2) | Hygroscopicity by dynamic vapor sorption (DVS) [9]
CCCC(=O)OCOC(=O)c1c(F)ccc2c1OB(O)[C@@H]1C[C@H]21 [Compound 1] | 3 ± 1 | 2 ± 1 | > 60 | > 60 | 11 ± 1 | High | 28 ± 2 | significantly slower | Yes | > 60 | > 60 | – | – | –
CC(=O)OCOC(=O)c1c(F)ccc2c1OB(O)[C@@H]1C[C@H]21 [Compound 2] | 3 ± 2 | 3 ± 2 | > 60 | > 60 | – | High | 8 ± 1 | – | not crystalline | > 60 | > 60 | No | – | –
CC(C)C(=O)OCOC(=O)c1c(F)ccc2c1OB(O)[C@@H]1C[C@H]21 [Compound II, (isobutyryloxy)methyl (1aR,7bS)-5-fluoro-2-hydroxy-1,1a,2,7b-tetrahydrobenzo[e]cyclopropa[c][1,2]oxaborinine-4-carboxylate] | 5 ± 3 | 2 ± 1 | > 60 | > 60 | 23 ± 2 | High | 9 ± 5 | – | Yes | > 60 | > 60 | – | 9 + 5 min | –
CC(C)C(=O)OCOC(=O)c1c(F)ccc2c1O[B-](O)(O)[C@@H]1C[C@H]21.[Na+] [crystalline Form A of Compound II′] | – | – | – | – | – | – | – | – | – | – | – | – | – | slightly hygroscopic
CC(C)C(=O)OCOC(=O)c1c(F)ccc2c1O[B-](O)(O)[C@@H]1C[C@H]21.[Na+] [crystalline Form B of Compound II′] | – | – | – | – | – | – | – | – | – | – | – | – | – | moderately hygroscopic
